According to patent publication US11834453B2, “Substituted pyrimido[5,4-d]pyrimidines as HER2 inhibitors” (Array BioPharma Inc., priority 2020, dated 2023):

What follows are molecules tested against EGFR wild type (EGFR WT) (Homo sapiens (Human), UniProt P00533) (assay: Cellular phosphorylation assay, EGF-stimulated EGFR phosphorylation in engineered NIH 3T3 cells, Phospho-EGFR DuoSet IC ELISA, Assay 5). Details: not given.
Format: cell-based
In short: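 NIH 3T3 cells expressing EGFR WT (20,000/well, attached overnight) were exposed to serially diluted compound for 1 h at 37 °C, then stimulated with 100 ng/ml rEGF for 10 min. Phospho-EGFR in lysates measured by sandwich ELISA optical density; IC50 from curves.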

Sequence of EGFR wild type (EGFR WT) (P00533 25-1210): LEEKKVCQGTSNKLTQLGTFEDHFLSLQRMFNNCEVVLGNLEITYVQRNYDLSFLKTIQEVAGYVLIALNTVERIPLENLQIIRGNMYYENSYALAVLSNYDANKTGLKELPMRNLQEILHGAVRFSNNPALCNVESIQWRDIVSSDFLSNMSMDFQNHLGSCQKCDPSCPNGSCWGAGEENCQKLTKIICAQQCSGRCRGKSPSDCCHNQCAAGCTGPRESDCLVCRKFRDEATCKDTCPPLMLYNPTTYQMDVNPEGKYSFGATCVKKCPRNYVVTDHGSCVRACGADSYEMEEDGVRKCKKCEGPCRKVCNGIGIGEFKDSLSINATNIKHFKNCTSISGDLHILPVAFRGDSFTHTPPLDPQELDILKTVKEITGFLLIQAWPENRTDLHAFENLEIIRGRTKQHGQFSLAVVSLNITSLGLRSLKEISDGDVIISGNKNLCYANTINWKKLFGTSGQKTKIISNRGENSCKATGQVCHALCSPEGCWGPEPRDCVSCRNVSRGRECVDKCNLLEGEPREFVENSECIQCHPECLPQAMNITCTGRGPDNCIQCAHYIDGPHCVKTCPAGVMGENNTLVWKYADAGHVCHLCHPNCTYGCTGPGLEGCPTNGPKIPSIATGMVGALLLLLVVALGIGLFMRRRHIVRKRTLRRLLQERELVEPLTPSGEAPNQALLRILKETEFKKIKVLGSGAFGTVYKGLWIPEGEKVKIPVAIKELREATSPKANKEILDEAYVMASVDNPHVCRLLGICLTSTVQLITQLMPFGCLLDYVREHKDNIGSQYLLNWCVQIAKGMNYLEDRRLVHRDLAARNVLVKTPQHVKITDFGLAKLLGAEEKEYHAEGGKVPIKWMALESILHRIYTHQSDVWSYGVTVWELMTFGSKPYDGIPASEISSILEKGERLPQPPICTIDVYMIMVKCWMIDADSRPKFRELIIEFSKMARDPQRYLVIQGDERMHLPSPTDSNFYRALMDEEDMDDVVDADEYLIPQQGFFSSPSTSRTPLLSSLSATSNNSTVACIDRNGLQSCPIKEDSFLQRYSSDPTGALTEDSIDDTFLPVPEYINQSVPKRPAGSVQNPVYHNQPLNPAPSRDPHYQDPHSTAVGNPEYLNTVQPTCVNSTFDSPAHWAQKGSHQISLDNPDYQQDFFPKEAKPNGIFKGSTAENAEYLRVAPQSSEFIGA

SMILES | IC50 [µM]
Cc1cc(Nc2ncnc3cnc(N(C)C4COC4)nc23)ccc1Oc1ccn2ncnc2c1 [Example 403] | ≥ 5
Cc1cc(Nc2ncnc3cnc(N4CC[C@@H](C#N)C4)nc23)ccc1Oc1ccn2ncnc2c1 [Example 404] | ≥ 5
CN(CC(C)(C)O)c1ncc2ncnc(Nc3ccc(Oc4ccn5ncnc5c4)c(Cl)c3)c2n1 [Example 405] | ≥ 5
N#CC[C@H]1CCN(c2ncc3ncnc(Nc4ccc(Oc5ccn6ncnc6c5)c(Cl)c4)c3n2)C1 [Example 406] | ≥ 5
Cc1cc(Nc2ncnc3cnc(N4CCC[C@H]4C(C)(C)O)nc23)ccc1Oc1ccc2c(c1)ncn2C [Example 408] | ≥ 5
Clc1cc(Nc2ncnc3cnc(N4CCOCC4)nc23)ccc1Oc1ccn2ncnc2c1 [Example 409] | ≥ 5
FC(F)[C@H]1CCN1c1ncc2ncnc(Nc3ccc(Oc4ccn5ncnc5c4)c(Cl)c3)c2n1 [Example 410] | ≥ 5
COC1CCN(c2ncc3ncnc(Nc4ccc(Oc5ccn6ncnc6c5)c(C)c4)c3n2)CC1 [Example 411] | ≥ 5
Cc1cc(Nc2ncnc3cnc(N4CCOCC4)nc23)ccc1Oc1ccn2ncnc2c1 [Example 412] | ≥ 5
Cc1cc(Nc2ncnc3cnc(N(C)C[C@H]4COCCO4)nc23)ccc1Oc1ccc2c(c1)ncn2C [Example 413] | ≥ 5
Cc1cc(Nc2ncnc3cnc(N4CCC[C@@](C)(O)C4)nc23)ccc1Oc1ccn2ncnc2c1 [Example 414] | ≥ 5
Cc1cc(Nc2ncnc3cnc(N(C)[C@@H]4CCCOC4)nc23)ccc1Oc1ccn2ncnc2c1 [Example 415] | ≥ 5
N#CC[C@@H]1CCN(c2ncc3ncnc(Nc4ccc(Oc5ccn6ncnc6c5)c(Cl)c4)c3n2)C1 [Example 416] | ≥ 5
Cc1cc(Nc2ncnc3cnc(N4CCN5CCOC[C@H]5C4)nc23)ccc1Oc1ccn2ncnc2c1 [Example 417] | ≥ 5

What follows are molecules tested against ErbB2 with Exon 20 YVMA insertion (HER2-YVMA) (Homo sapiens (Human), UniProt P04626, INS775YVMA) (assay: Cellular phosphorylation assay, constitutive ErbB2 phosphorylation (Y1196) in engineered NIH 3T3 cells, Assay 4). Details: not given.
Sequence of ErbB2 with Exon 20 YVMA insertion (HER2-YVMA) (P04626 other isoform, or with tags, fused parts or gaps ins YVMA behind 775): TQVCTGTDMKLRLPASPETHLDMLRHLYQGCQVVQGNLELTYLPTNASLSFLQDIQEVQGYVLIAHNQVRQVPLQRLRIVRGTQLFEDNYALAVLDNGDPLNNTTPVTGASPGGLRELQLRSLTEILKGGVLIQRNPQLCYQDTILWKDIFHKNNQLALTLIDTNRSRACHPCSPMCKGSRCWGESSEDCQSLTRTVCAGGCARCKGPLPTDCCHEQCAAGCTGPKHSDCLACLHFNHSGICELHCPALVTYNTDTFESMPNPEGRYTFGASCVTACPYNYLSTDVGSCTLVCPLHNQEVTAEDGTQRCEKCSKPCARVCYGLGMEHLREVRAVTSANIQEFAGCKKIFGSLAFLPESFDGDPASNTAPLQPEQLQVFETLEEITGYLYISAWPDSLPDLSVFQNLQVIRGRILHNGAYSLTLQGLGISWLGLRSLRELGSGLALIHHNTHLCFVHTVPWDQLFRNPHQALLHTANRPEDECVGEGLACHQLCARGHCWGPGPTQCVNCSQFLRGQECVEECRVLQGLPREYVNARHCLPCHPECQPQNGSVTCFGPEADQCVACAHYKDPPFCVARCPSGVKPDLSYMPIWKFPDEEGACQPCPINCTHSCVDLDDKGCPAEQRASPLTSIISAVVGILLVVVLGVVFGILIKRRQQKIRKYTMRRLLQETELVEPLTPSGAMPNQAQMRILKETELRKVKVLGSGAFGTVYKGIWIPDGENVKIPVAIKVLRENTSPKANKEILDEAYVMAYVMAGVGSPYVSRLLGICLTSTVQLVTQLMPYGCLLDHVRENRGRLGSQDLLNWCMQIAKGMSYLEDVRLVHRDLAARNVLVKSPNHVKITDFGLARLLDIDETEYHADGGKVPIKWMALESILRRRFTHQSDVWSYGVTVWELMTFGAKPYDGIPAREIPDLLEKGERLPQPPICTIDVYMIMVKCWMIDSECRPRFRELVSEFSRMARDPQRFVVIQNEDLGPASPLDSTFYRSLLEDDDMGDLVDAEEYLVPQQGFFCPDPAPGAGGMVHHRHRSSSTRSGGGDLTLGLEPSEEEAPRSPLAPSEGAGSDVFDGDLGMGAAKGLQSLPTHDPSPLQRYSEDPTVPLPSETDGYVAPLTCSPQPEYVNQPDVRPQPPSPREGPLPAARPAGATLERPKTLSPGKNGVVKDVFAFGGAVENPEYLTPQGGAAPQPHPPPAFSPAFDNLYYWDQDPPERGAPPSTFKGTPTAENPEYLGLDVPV
Format: cell-based
In short: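 Engineered NIH 3T3 cells expressing HER2-YVMA treated with compounds 1 h at 37 °C, then formaldehyde-fixed and methanol-permeabilized. pErbB2 Y1196 detected by in-cell infrared immunofluorescence, normalized to GAPDH. IC50 from the normalized curves.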

SMILES | IC50 [µM]
Cc1cc(Nc2ncnc3cnc(N(C)C4COC4)nc23)ccc1Oc1ccn2ncnc2c1 [Example 403] | 0.339
Cc1cc(Nc2ncnc3cnc(N4CC[C@@H](C#N)C4)nc23)ccc1Oc1ccn2ncnc2c1 [Example 404] | 0.182
CN(CC(C)(C)O)c1ncc2ncnc(Nc3ccc(Oc4ccn5ncnc5c4)c(Cl)c3)c2n1 [Example 405] | 0.106
N#CC[C@H]1CCN(c2ncc3ncnc(Nc4ccc(Oc5ccn6ncnc6c5)c(Cl)c4)c3n2)C1 [Example 406] | 0.0636
Cc1cc(Nc2ncnc3cnc(N4CCC[C@H]4C(C)(C)O)nc23)ccc1Oc1ccc2c(c1)ncn2C [Example 408] | 0.0421
Clc1cc(Nc2ncnc3cnc(N4CCOCC4)nc23)ccc1Oc1ccn2ncnc2c1 [Example 409] | 0.043
FC(F)[C@H]1CCN1c1ncc2ncnc(Nc3ccc(Oc4ccn5ncnc5c4)c(Cl)c3)c2n1 [Example 410] | 0.208
COC1CCN(c2ncc3ncnc(Nc4ccc(Oc5ccn6ncnc6c5)c(C)c4)c3n2)CC1 [Example 411] | 0.604
Cc1cc(Nc2ncnc3cnc(N4CCOCC4)nc23)ccc1Oc1ccn2ncnc2c1 [Example 412] | 0.0697
Cc1cc(Nc2ncnc3cnc(N(C)C[C@H]4COCCO4)nc23)ccc1Oc1ccc2c(c1)ncn2C [Example 413] | 0.0308
Cc1cc(Nc2ncnc3cnc(N4CCC[C@@](C)(O)C4)nc23)ccc1Oc1ccn2ncnc2c1 [Example 414] | 0.14
Cc1cc(Nc2ncnc3cnc(N(C)[C@@H]4CCCOC4)nc23)ccc1Oc1ccn2ncnc2c1 [Example 415] | 0.0946
N#CC[C@@H]1CCN(c2ncc3ncnc(Nc4ccc(Oc5ccn6ncnc6c5)c(Cl)c4)c3n2)C1 [Example 416] | 0.0271
Cc1cc(Nc2ncnc3cnc(N4CCN5CCOC[C@H]5C4)nc23)ccc1Oc1ccn2ncnc2c1 [Example 417] | 0.0626

What follows are molecules tested against ErbB2 insYVMA (HER2-YVMA, SEQ ID NO: 2) (Homo sapiens, UniProt P04626, INS775YVMA/P1170A) (assay: biochemical). Details: ErbB2 insYVMA enzyme assay; read-out: Assay 1 IC50.
Sequence of ErbB2 insYVMA (HER2-YVMA, SEQ ID NO: 2) (P04626 with tags, fused parts or gaps INS775YVMA/P1170A limits assumed): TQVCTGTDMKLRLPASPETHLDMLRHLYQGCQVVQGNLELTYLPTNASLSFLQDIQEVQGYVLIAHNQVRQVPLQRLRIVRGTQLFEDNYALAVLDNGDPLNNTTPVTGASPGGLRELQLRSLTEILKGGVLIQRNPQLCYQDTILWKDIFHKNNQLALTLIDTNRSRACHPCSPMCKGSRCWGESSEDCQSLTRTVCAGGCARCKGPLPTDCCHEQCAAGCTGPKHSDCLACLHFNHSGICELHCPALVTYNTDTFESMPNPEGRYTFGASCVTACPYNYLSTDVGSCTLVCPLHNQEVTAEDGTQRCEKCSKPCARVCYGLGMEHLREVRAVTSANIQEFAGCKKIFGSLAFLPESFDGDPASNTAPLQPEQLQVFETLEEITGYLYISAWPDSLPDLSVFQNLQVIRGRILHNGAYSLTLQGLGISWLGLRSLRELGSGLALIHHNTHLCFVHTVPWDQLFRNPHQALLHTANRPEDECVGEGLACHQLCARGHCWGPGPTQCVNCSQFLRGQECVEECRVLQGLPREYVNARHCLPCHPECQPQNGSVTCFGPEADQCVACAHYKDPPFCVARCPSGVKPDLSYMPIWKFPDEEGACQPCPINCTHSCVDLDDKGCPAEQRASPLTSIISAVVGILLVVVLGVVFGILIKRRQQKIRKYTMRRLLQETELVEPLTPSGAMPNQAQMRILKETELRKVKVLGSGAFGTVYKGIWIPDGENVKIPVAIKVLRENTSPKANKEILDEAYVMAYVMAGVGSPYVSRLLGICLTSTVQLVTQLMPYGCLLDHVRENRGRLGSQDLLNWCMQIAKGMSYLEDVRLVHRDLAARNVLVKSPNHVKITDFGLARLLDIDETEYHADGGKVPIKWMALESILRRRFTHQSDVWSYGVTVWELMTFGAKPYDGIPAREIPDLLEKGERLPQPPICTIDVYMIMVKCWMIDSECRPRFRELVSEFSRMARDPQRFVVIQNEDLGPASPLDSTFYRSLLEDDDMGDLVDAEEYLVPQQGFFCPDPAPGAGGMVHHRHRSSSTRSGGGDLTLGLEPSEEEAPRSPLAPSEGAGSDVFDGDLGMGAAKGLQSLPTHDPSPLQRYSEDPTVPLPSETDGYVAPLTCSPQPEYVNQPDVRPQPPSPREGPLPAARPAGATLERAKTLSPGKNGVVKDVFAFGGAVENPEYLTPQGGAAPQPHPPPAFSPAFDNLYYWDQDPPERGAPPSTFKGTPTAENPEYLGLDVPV

SMILES | IC50 [µM]
Cc1cc(Nc2ncnc3cnc(N(C)C4COC4)nc23)ccc1Oc1ccn2ncnc2c1 [Example 403] | 0.0167
Cc1cc(Nc2ncnc3cnc(N4CC[C@@H](C#N)C4)nc23)ccc1Oc1ccn2ncnc2c1 [Example 404] | 0.0228
CN(CC(C)(C)O)c1ncc2ncnc(Nc3ccc(Oc4ccn5ncnc5c4)c(Cl)c3)c2n1 [Example 405] | 0.0157
N#CC[C@H]1CCN(c2ncc3ncnc(Nc4ccc(Oc5ccn6ncnc6c5)c(Cl)c4)c3n2)C1 [Example 406] | 0.0166
Cc1cc(Nc2ncnc3cnc(N4CCC[C@H]4C(C)(C)O)nc23)ccc1Oc1ccc2c(c1)ncn2C [Example 408] | 0.0326
Clc1cc(Nc2ncnc3cnc(N4CCOCC4)nc23)ccc1Oc1ccn2ncnc2c1 [Example 409] | 0.0183
FC(F)[C@H]1CCN1c1ncc2ncnc(Nc3ccc(Oc4ccn5ncnc5c4)c(Cl)c3)c2n1 [Example 410] | 0.0147
COC1CCN(c2ncc3ncnc(Nc4ccc(Oc5ccn6ncnc6c5)c(C)c4)c3n2)CC1 [Example 411] | 0.0263
Cc1cc(Nc2ncnc3cnc(N4CCOCC4)nc23)ccc1Oc1ccn2ncnc2c1 [Example 412] | 0.0259
Cc1cc(Nc2ncnc3cnc(N(C)C[C@H]4COCCO4)nc23)ccc1Oc1ccc2c(c1)ncn2C [Example 413] | 0.0497
Cc1cc(Nc2ncnc3cnc(N4CCC[C@@](C)(O)C4)nc23)ccc1Oc1ccn2ncnc2c1 [Example 414] | 0.0252
Cc1cc(Nc2ncnc3cnc(N(C)[C@@H]4CCCOC4)nc23)ccc1Oc1ccn2ncnc2c1 [Example 415] | 0.0169
N#CC[C@@H]1CCN(c2ncc3ncnc(Nc4ccc(Oc5ccn6ncnc6c5)c(Cl)c4)c3n2)C1 [Example 416] | 0.0113
Cc1cc(Nc2ncnc3cnc(N4CCN5CCOC[C@H]5C4)nc23)ccc1Oc1ccn2ncnc2c1 [Example 417] | 0.0314

These molecules were tested against EGFR (Homo sapiens (Human), UniProt P00533) (assay: ErbB enzyme assay (CisBio HTRF KinEASE-TK), Assay 3). Details: not given.
Format: biochemical
In short: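 HTRF KinEASE-TK assay: kinase with 250 nM biotinylated TK-substrate and 1 mM ATP in 25 mM HEPES pH 7.4, 10 mM MgCl2, 0.01% Triton X-100, 2% DMSO, 30 min at 22 °C. Quenched with Sa-XL665/TK-Ab-Cryptate, read after 1 h. IC50 from 4-parameter fit of percent of control.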

SMILES | IC50 [µM]
Cc1cc(Nc2ncnc3cnc(N(C)C4COC4)nc23)ccc1Oc1ccn2ncnc2c1 [Example 403] | 6.63
Cc1cc(Nc2ncnc3cnc(N4CC[C@@H](C#N)C4)nc23)ccc1Oc1ccn2ncnc2c1 [Example 404] | 7.55
CN(CC(C)(C)O)c1ncc2ncnc(Nc3ccc(Oc4ccn5ncnc5c4)c(Cl)c3)c2n1 [Example 405] | 4.69
N#CC[C@H]1CCN(c2ncc3ncnc(Nc4ccc(Oc5ccn6ncnc6c5)c(Cl)c4)c3n2)C1 [Example 406] | 8.28
Cc1cc(Nc2ncnc3cnc(N4CCC[C@H]4C(C)(C)O)nc23)ccc1Oc1ccc2c(c1)ncn2C [Example 408] | ≥ 10
Clc1cc(Nc2ncnc3cnc(N4CCOCC4)nc23)ccc1Oc1ccn2ncnc2c1 [Example 409] | 3.53
FC(F)[C@H]1CCN1c1ncc2ncnc(Nc3ccc(Oc4ccn5ncnc5c4)c(Cl)c3)c2n1 [Example 410] | 6.3
COC1CCN(c2ncc3ncnc(Nc4ccc(Oc5ccn6ncnc6c5)c(C)c4)c3n2)CC1 [Example 411] | ≥ 10
Cc1cc(Nc2ncnc3cnc(N4CCOCC4)nc23)ccc1Oc1ccn2ncnc2c1 [Example 412] | ≥ 10
Cc1cc(Nc2ncnc3cnc(N(C)C[C@H]4COCCO4)nc23)ccc1Oc1ccc2c(c1)ncn2C [Example 413] | ≥ 10
Cc1cc(Nc2ncnc3cnc(N4CCC[C@@](C)(O)C4)nc23)ccc1Oc1ccn2ncnc2c1 [Example 414] | 1.41
Cc1cc(Nc2ncnc3cnc(N(C)[C@@H]4CCCOC4)nc23)ccc1Oc1ccn2ncnc2c1 [Example 415] | 0.97
N#CC[C@@H]1CCN(c2ncc3ncnc(Nc4ccc(Oc5ccn6ncnc6c5)c(Cl)c4)c3n2)C1 [Example 416] | 2.24
Cc1cc(Nc2ncnc3cnc(N4CCN5CCOC[C@H]5C4)nc23)ccc1Oc1ccn2ncnc2c1 [Example 417] | 6.86

These molecules were tested against ErbB2 WT (Homo sapiens (Human), UniProt P04626) (assay: ErbB enzyme assay (CisBio HTRF KinEASE-TK), Assay 2). Details: not given.
Sequence of ErbB2 WT (P04626 23-1255): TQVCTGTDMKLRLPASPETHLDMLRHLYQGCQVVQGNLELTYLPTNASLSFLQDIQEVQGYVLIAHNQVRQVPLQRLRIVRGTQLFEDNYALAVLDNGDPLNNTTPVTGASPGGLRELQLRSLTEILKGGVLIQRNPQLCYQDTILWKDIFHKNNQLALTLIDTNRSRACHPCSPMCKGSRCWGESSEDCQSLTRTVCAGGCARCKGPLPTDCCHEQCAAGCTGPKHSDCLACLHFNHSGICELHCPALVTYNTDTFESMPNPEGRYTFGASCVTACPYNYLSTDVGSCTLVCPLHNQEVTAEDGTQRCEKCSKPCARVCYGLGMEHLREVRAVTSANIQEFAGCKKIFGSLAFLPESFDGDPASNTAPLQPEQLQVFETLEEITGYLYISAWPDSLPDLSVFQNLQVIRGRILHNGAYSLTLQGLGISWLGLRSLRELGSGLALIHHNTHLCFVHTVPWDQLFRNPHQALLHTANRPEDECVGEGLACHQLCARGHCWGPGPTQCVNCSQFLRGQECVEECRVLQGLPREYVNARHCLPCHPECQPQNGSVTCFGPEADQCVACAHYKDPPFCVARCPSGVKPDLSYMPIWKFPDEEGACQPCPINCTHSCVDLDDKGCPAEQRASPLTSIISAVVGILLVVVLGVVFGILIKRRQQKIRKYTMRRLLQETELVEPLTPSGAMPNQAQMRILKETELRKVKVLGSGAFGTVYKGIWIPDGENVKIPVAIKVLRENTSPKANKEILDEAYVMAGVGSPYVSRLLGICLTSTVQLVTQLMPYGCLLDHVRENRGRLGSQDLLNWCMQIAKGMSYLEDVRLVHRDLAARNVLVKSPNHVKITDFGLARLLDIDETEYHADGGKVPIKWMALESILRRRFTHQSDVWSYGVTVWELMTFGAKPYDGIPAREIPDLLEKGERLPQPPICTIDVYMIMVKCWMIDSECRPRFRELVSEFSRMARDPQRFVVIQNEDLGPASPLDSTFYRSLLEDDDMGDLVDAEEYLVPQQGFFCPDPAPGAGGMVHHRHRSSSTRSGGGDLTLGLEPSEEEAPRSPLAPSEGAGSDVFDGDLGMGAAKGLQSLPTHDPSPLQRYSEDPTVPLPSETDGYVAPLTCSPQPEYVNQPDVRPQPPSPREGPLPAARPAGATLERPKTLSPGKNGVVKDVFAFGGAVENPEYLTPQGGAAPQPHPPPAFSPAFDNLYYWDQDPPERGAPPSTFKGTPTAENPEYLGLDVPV
Format: biochemical
In short: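 ErbB2 phosphorylates 250 nM biotin-TK substrate at 1 mM ATP in 25 mM HEPES pH 7.4, 10 mM MgCl2, 0.01% Triton X-100 and 2% DMSO, for 30 min at 22 °C. Product is detected by HTRF with Sa-XL665 and TK-Ab-Cryptate. Percent of control is set by DMSO-only wells and pre-quenched wells.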

SMILES | IC50 [µM]
Cc1cc(Nc2ncnc3cnc(N(C)C4COC4)nc23)ccc1Oc1ccn2ncnc2c1 [Example 403] | 0.012
Cc1cc(Nc2ncnc3cnc(N4CC[C@@H](C#N)C4)nc23)ccc1Oc1ccn2ncnc2c1 [Example 404] | 0.037
CN(CC(C)(C)O)c1ncc2ncnc(Nc3ccc(Oc4ccn5ncnc5c4)c(Cl)c3)c2n1 [Example 405] | 0.0303
N#CC[C@H]1CCN(c2ncc3ncnc(Nc4ccc(Oc5ccn6ncnc6c5)c(Cl)c4)c3n2)C1 [Example 406] | 0.0323
Cc1cc(Nc2ncnc3cnc(N4CCC[C@H]4C(C)(C)O)nc23)ccc1Oc1ccc2c(c1)ncn2C [Example 408] | 0.0656
Clc1cc(Nc2ncnc3cnc(N4CCOCC4)nc23)ccc1Oc1ccn2ncnc2c1 [Example 409] | 0.0321
FC(F)[C@H]1CCN1c1ncc2ncnc(Nc3ccc(Oc4ccn5ncnc5c4)c(Cl)c3)c2n1 [Example 410] | 0.0423
COC1CCN(c2ncc3ncnc(Nc4ccc(Oc5ccn6ncnc6c5)c(C)c4)c3n2)CC1 [Example 411] | 0.0562
Cc1cc(Nc2ncnc3cnc(N4CCOCC4)nc23)ccc1Oc1ccn2ncnc2c1 [Example 412] | 0.0705
Cc1cc(Nc2ncnc3cnc(N(C)C[C@H]4COCCO4)nc23)ccc1Oc1ccc2c(c1)ncn2C [Example 413] | 0.103
Cc1cc(Nc2ncnc3cnc(N4CCC[C@@](C)(O)C4)nc23)ccc1Oc1ccn2ncnc2c1 [Example 414] | 0.0237
Cc1cc(Nc2ncnc3cnc(N(C)[C@@H]4CCCOC4)nc23)ccc1Oc1ccn2ncnc2c1 [Example 415] | 0.0168
N#CC[C@@H]1CCN(c2ncc3ncnc(Nc4ccc(Oc5ccn6ncnc6c5)c(Cl)c4)c3n2)C1 [Example 416] | 0.0215
Cc1cc(Nc2ncnc3cnc(N4CCN5CCOC[C@H]5C4)nc23)ccc1Oc1ccn2ncnc2c1 [Example 417] | 0.0621
